Assay results from patent US20250034201A1, “PRODRUGS OF GANAXOLONE” (priority 2022, published 2025).
Values after ≈ are worked out from the molar mass of the structure shown. Like-named read-outs stand apart in the source and are kept apart here.

Tests used:
[1] = Measured solubility in buffer, LC-MS/MS; type: physicochemical; settings: aqueous buffer, thermodynamic from solid
Procedure: […] The mixture was vortexed and a magnetic stirring bar was subsequently added to the vial. The vial was placed on a magnetic stirrer with constant stirring for 16-24 hours at room temperature. The pH of the top layer solution was measured. Subsequently, 200 μL of the top layer solution was placed in a 1.5 mL microcentrifuge tube and centrifuged at 18,000 g for 10 min at room temperature. A 10 μL aliquot of supernatant was added to 990 μL of methanol:water (1/:1, v/v) and vortexed. Then, one volume of acetonitrile containing internal standard was added to one volume of the above 100-fold diluted solution and the resulting solution was vortexed and placed in 96-well plate for LC-MS/MS analysis. […] LC-MS-MS analysis was performed utilizing multiple reaction monitoring for detection of characteristic ions for each test compound, additional related analytes and internal standard.

[2] = Stability in simulated gastric fluid (SGF); type: in vitro ADME
Procedure: (§1) The stability of exemplary compounds in simulated gastric fluid (SGF) and simulated intestinal fluid (SIF) was tested according to the following protocol.

[3] = Stability in simulated intestinal fluid (SIF); type: in vitro ADME
Procedure: as §1

[4] = Rat liver microsomal stability; type: in vitro ADME
Procedure: (§2) For several compounds only human liver microsomal stability was tested. […] The microsomal assays were carried out with and without the addition of NADPH at a final concentration of 1 mM. For negative control samples, NADPH reagent was not added. […] Note that compounds undergo only Phase I metabolism in liver microsomes.
(§3) CLint=the intrinsic hepatic clearance (uL/min/mg), where CLint is equal to 0.693/(t1/2×Cmp)

in vitro [5] = type: in vitro ADME, human
Procedure: as §2

[6] = Mouse liver microsomal stability; type: in vitro ADME
Procedure: as §2, §3
(§4) Certain compounds were also tested in mice and dog liver microsome assays according to the protocol outlined above. […].

[7] = Dog liver microsomal stability; type: in vitro ADME
Procedure: as §2, §3, §4

in vitro [8] = assay: in vitro
Mouse plasma stability = type: in vitro ADME; settings: 2 μg/mL, 37° C.
Procedure: (§5) For each test compound, samples at a final concentration of 2 μg/mL were prepared in blank plasma of selected species. All samples were incubated at 37° C. on a 150-RPM orbital shaker, and an aliquot was removed at pre-determined time points (0, 15, 30, 60, and 120 minutes). Samples were precipitated with three volumes of acetonitrile containing propranolol as internal standard, and centrifuged for 10 min at 2000 g before LC/MS/MS analysis of the supernatant solutions.

Dog plasma stability = type: in vitro ADME
Procedure: as §5

[9] = Pharmacokinetic study with Compound 111 (IV 5 mg/kg, PO 25 mg/kg); type: in vivo; settings: analyte Compound 111, fasted male beagle dogs, mean; for AUC(0-t): read-out: Compound 111 PK AUClast; for MRT inf: read-out: Compound 111 PK MRTInf; for half-life: read-out: Compound 111 PK t1/2 (converted); for Vd: male, beagle, iv, 5 mg/kg
Procedure: […]; n=3) and oral (PO) administration (25 mg/kg; n=3) in fasted male beagle dogs.

[10] = Pharmacokinetic study with Compound 224 (IV 2 mg/kg, PO 10 mg/kg); settings: male, beagle, dog, plasma, analyte Compound 224, fasted male beagle dogs, mean
Procedure: Analysis time points for the IV arm were 0.083, 0.25, 0.5, 1, 2, 4, 8, 12, 24, 36 and 48 hours post dose and analysis time points for the PO arm were 0.25, 0.5, 1, 2, 4, 8, 12, 24, 36 and 48 hours post dose.

[11] = dog, plasma, IV 5 mg/kg Compound 111
[12] = dog, plasma, oral 25 mg/kg Compound 111

CC(=O)[C@H]1CC[C@H]2[C@@H]3CC[C@H]4C[C@](C)(OC(=O)CN)CC[C@]4(C)[C@H]3CC[C@]12C [Compound 111]
solubility ([1]; pH 7.4, 50 mM phosphate buffer, 16-24 hours, room temperature, read-out: Solubility pH 7.4): 29.1 µg/mL (≈ 74.7 µM) | solubility ([1]; buffer, pH 2.0, room temperature, read-out: Solubility pH 2.0): 1520 µg/mL (≈ 3900 µM) | SGF (% remain, 60 min) ([2]; SGF with pepsin pH 1.2, 37° C., 60 min): 95% | half-life ([2]; simulated gi fluid, SGF with pepsin pH 1.2, 37° C., 2 μg/mL, read-out: SGF t1/2): 12.4 h | SIF (% remain, 60 min) ([3]; SIF with pancreatin pH 6.8, 37° C., 60 min): 79.0% | half-life ([3]; simulated gi fluid, SIF with pancreatin pH 6.8, 37° C., 2 μg/mL, read-out: SIF t1/2): 4.27 h | Comments: production of GNX (ganaxolone) in rat liver microsomes ([4]; rat liver microsomes): In rat no GNX produced; | half-life ([4]; rat liver microsomes 0.5 mg/mL, with NADPH, compound 0.5 μM, 37° C., read-out: Rat Liver Microsomal Stability t1/2): 5.58 h | microsomal CLint ([4]; rat liver microsomes 0.5 mg/mL, with NADPH, compound 0.5 μM, read-out: Rat Liver Microsomal Stability CLint (uL/min/mg liver)): 4.13 µL/min/mg | Rat Liver Microsomal Stability no NADPH, % remain 1 h ([4]; rat liver microsomes, no NADPH, compound 0.5 μM): 99.7% | half-life (in vitro [5]; human liver microsomes 0.5 mg/mL, with NADPH, compound 0.5 μM, 37° C., read-out: Human Liver Microsomal Stability t1/2): 3.17 h | microsomal CLint (in vitro [5]; human liver microsomes 0.5 mg/mL, with NADPH, compound 0.5 μM, read-out: Human Liver Microsomal Stability CLint (uL/min/mg liver) (converted)): 7.28 µL/min/mg | Human Liver Microsomal Stability no NADPH, % remain 1 h (in vitro [5]; human liver microsomes, no NADPH, compound 0.5 μM): 82.6% | microsomal CLint ([6]; mouse liver microsomes 0.5 mg/mL, compound 0.5 μM, read-out: Mouse Liver Microsomal Stability CLint (uL/min/mg liver)): 11.8 µL/min/mg | half-life ([6]; mouse liver microsomes 0.5 mg/mL, compound 0.5 μM, read-out: Mouse Liver Microsomal Stability t1/2): 1.97 h | Mouse Liver Microsomal Stability no NADPH, % remain 1 h ([6]; mouse liver microsomes, no NADPH, 1 h): 92.7% | microsomal CLint ([7]; dog liver microsomes 0.5 mg/mL, compound 0.5 μM, read-out: Dog Liver Microsomal Stability CLint (uL/min/mg liver)): 4.95 µL/min/mg | half-life ([7]; dog liver microsomes 0.5 mg/mL, compound 0.5 μM, read-out: Dog Liver Microsomal Stability t1/2): 4.67 h | Dog Liver Microsomal Stability no NADPH, % remain 1 h ([7]; dog liver microsomes, no NADPH): 92.3% | Human plasma t90 (in vitro [8]; human plasma, 2 μg/mL, 37° C.): 542 min | half-life (in vitro [8]; human, plasma): 60 h | Rat plasma t90 (in vitro [8]; rat plasma, 2 μg/mL, 37° C.): 132 min | half-life (in vitro [8]; rat, plasma): 14.6 h | Mouse plasma t90 (Mouse plasma stability): 67.2 min | half-life (Mouse plasma stability; read-out: Mouse plasma Half life (t1/2)): 7.43 h | Dog plasma t90 (Dog plasma stability; dog plasma, 2 μg/mL, 37° C.): 243 min | half-life (Dog plasma stability; dog plasma, 2 μg/mL, 37° C., read-out: Dog plasma Half life (t1/2)): 26.8 h | Compound 111 PK AUCInf/D ([9]; oral 25 mg/kg Compound 111): 68.7 kg·ng·h/mL/mg | AUC(0-inf) ([9]; dog, plasma, IV 5 mg/kg Compound 111, read-out: Compound 111 PK AUCinf): 2790 ng·h/mL | AUC(0-t) [9, 11]: 2740 ng·h/mL | C0 ([9]; dog, plasma, IV 5 mg/kg Compound 111, read-out: Compound 111 PK C0): 1500 ng/mL | clearance ([9]; dog, plasma, IV 5 mg/kg Compound 111, read-out: Compound 111 PK CL): 31.7 mL/min/kg | MRT inf [9, 11]: 3.68 h | half-life [9, 11]: 3.54 h | AUC(0-inf) ([9]; dog, plasma, oral 25 mg/kg Compound 111, read-out: Compound 111 PK AUCInf): 1720 ng·h/mL | AUC(0-t) [9, 12]: 1570 ng·h/mL | Cmax ([9]; dog, plasma, oral 25 mg/kg Compound 111, read-out: Compound 111 PK Cmax): 177 ng/mL | MRT inf [9, 12]: 10.6 h | Tmax ([9]; dog, plasma, oral 25 mg/kg Compound 111, read-out: Compound 111 PK Tmax): 2.67 h | half-life [9, 12]: 7.15 h | bioavailability ([9]; dog, plasma, oral 25 mg/kg vs IV 5 mg/kg Compound 111, read-out: Compound 111 PK F (%)): 11.4% | Vd ([9]; dog, plasma, IV 5 mg/kg Compound 111, read-out: Compound 111 PK Vss): 6.71 L/kg | Vd ([9]; dog, plasma, IV 5 mg/kg Compound 111, read-out: Compound 111 PK Vz): 9.47 L/kg

CC(=O)[C@H]1CC[C@H]2[C@@H]3CC[C@H]4C[C@](C)(OC(=O)COC(=O)C(C)(C)O)CC[C@]4(C)[C@H]3CC[C@]12C [Compound 224]
SGF (% remain, 60 min) ([2]; simulated gi fluid, 1 h, pH 1.2): 88% | half-life ([2]; simulated gi fluid, pH 1.2): 6.08 h | SIF (% remain, 60 min) ([3]; simulated gi fluid, 1 h, pH 6.8): 60% | half-life ([3]; simulated gi fluid, pH 6.8): 1.63 h | Comments: production of GNX (ganaxolone) in rat liver microsomes ([4]; rat liver microsomes): In rat no GNX produced; | half-life ([4]; rat, microsomes): 0.163 h | microsomal CLint ([4]; rat, microsomes): 142 µL/min/mg | Rat Liver Microsomal Stability no NADPH, % remain 1 h ([4]; rat, microsomes): 1.4% | half-life (in vitro [5]; human, microsomes): 0.0278 h | microsomal CLint (in vitro [5]; human, microsomes): 828 µL/min/mg | Human Liver Microsomal Stability no NADPH, % remain 1 h (in vitro [5]; human, microsomes): 0.4% | half-life ([7]; dog, microsomes): 0.118 h | microsomal CLint ([7]; dog, microsomes): 196 µL/min/mg | Dog Liver Microsomal Stability no NADPH, % remain 1 h ([7]; dog, microsomes): 0.6% | Human plasma t90 (in vitro [8]; human): 6.5 min | half-life (in vitro [8]; human, plasma): 0.717 h | Rat plasma t90 (in vitro [8]; rat): 2.16 min | Observations: stability / GNX production in rat plasma (in vitro [8]; rat, plasma): GNX produced in rat | half-life (in vitro [8]; rat, plasma): 0.24 h | Dog plasma t90 (Dog plasma stability; dog): 126 min | half-life (Dog plasma stability; dog plasma): 14 h | Vd ([10]; Compound 224 PK Vss (L/kg)): 5.92 L/kg | Vd ([10]; Compound 224 PK Vz (L/kg)): 16.1 L/kg
